Experimental data: ChEMBL document CHEMBL3885861, “Open TG-GATES”

Organism: Rattus norvegicus
Assay: Open TG-GATES - Regimen: Daily Repeat
Type: toxicity, organism-based, Sprague-Dawley
Set-up: regimen Daily Repeat, gender Male, age 6 weeks
Conditions: in vivo, po, 1200 mg/kg, route gavage, dose level Middle; for APTT / Bas / Eos / Fbg / Hb / Ht / Lym / MCH / MCHC / MCV / Mono / Neu / PT / Plat / RBC / Ret / WBC: tissue Blood; for KIDNEY_L / KIDNEY_R / KIDNEY_TOTAL: tissue Kidney; for LIVER: tissue Liver; for A/G / ALP / ALT / AST / BUN / CRE / Ca / Cl / DBIL / GLC / IP / K / LDH / Na / PL / RALB / TBIL / TC / TG / TP / gamma-GTP: tissue Plasma

In the case of CCO [ALCOHOL], the TERMINAL_BW (72 h, time 3 day) is reported as 236.1 g, the APTT (72 h, time 3 day) is reported as 17.5 s and the Bas (72 h, time 3 day) is reported as 0%. For the same compound, the Eos (72 h, time 3 day) was 1.2%, the Fbg (72 h, time 3 day) was 209 mg/dL and the Hb (72 h, time 3 day) was 13.9 g/dL. The Ht (72 h, time 3 day) was 41%, the Lym (72 h, time 3 day) was 74.6% and the MCH (72 h, time 3 day) was 21.6 pg. The MCHC (72 h, time 3 day) was 33.8%, the MCV (72 h, time 3 day) was 64 fL and the Mono (72 h, time 3 day) was 5.8%. It also gave a Neu (72 h, time 3 day) of 18%, a PT (72 h, time 3 day) of 11.3 s and a Plat (72 h, time 3 day) of 124.3 x10_4/uL. The RBC (72 h, time 3 day) was 642.4 x10_4/ul, the Ret (72 h, time 3 day) was 7.7% and the WBC (72 h, time 3 day) was 106.2 x10_2/uL. It also gave a KIDNEY_L (72 h, time 3 day) of 1.1 g, a KIDNEY_R (72 h, time 3 day) of 1.1 g and a KIDNEY_TOTAL (72 h, time 3 day) of 2.1 g. It also gave an LIVER (72 h, time 3 day) of 11.5 g, an A/G (72 h, time 3 day) of 2.3 and an ALP (72 h, time 3 day) of 854.8 IU/L. For the same compound, the ALT (72 h, time 3 day) was 38.2 IU/L, the AST (72 h, time 3 day) was 65 IU/L and the BUN (72 h, time 3 day) was 20.2 mg/dL. The CRE (72 h, time 3 day) was 0.6 mg/dL, the Ca (72 h, time 3 day) was 11.2 mg/dL and the Cl (72 h, time 3 day) was 104 meq/L. It also gave a DBIL (72 h, time 3 day) of 0.026 mg/dL, a GLC (72 h, time 3 day) of 208.2 mg/dL and an IP (72 h, time 3 day) of 9 mg/dL. For the same compound, the K (72 h, time 3 day) was 4.7 meq/L, the LDH (72 h, time 3 day) was 113.6 IU/L and the Na (72 h, time 3 day) was 141 meq/L. The PL (72 h, time 3 day) was 145.6 mg/dL, the RALB (72 h, time 3 day) was 4.1 g/dL and the TBIL (72 h, time 3 day) was 0.3 mg/dL. The TC (72 h, time 3 day) was 74.2 mg/dL, the TG (72 h, time 3 day) was 89.2 mg/dL and the TP (72 h, time 3 day) was 5.8 g/dL. The gamma-GTP (72 h, time 3 day) was 1.4 IU/L, the TERMINAL_BW ([…], time 7 day) was 268.6 g and the TERMINAL_BW ([…], time 14 day) was 302.2 g. It also gave a TERMINAL_BW ([…], time 28 day) of 371.8 g, an APTT ([…], time 7 day) of 18.1 s and a Bas ([…], time 7 day) of 0%. For the same compound, the Eos ([…], time 7 day) was 0.8%, the Fbg ([…], time 7 day) was 227.4 mg/dL and the Hb ([…], time 7 day) was 14.3 g/dL. It also gave a Ht ([…], time 7 day) of 42.2%, a Lym ([…], time 7 day) of 81.8% and an MCH ([…], time 7 day) of 21.3 pg. It also gave an MCHC ([…], time 7 day) of 33.8%, an MCV ([…], time 7 day) of 62.9 fL and a Mono ([…], time 7 day) of 6.2%. The Neu ([…], time 7 day) was 11.4%, the PT ([…], time 7 day) was 11 s and the Plat ([…], time 7 day) was 127.6 x10_4/uL. The RBC ([…], time 7 day) was 670.6 x10_4/ul, the Ret ([…], time 7 day) was 6.1% and the WBC ([…], time 7 day) was 112 x10_2/uL. It also gave an APTT ([…], time 14 day) of 18.2 s, a Bas ([…], time 14 day) of 0% and an Eos ([…], time 14 day) of 1.2%. For the same compound, the Fbg ([…], time 14 day) was 227 mg/dL, the Hb ([…], time 14 day) was 15.4 g/dL and the Ht ([…], time 14 day) was 45.5%. The Lym ([…], time 14 day) was 80%, the MCH ([…], time 14 day) was 20.6 pg and the MCHC ([…], time 14 day) was 33.9%. For the same compound, the MCV ([…], time 14 day) was 60.8 fL, the Mono ([…], time 14 day) was 5.4% and the Neu ([…], time 14 day) was 13.6%. The PT ([…], time 14 day) was 11.4 s, the Plat ([…], time 14 day) was 115.9 x10_4/uL and the RBC ([…], time 14 day) was 749 x10_4/ul. For the same compound, the Ret ([…], time 14 day) was 4.5%, the WBC ([…], time 14 day) was 119.1 x10_2/uL and the APTT ([…], time 28 day) was 17.5 s. It also gave a Bas ([…], time 28 day) of 0%, an Eos ([…], time 28 day) of 1.4% and a Fbg ([…], time 28 day) of 224 mg/dL. It also gave a Hb ([…], time 28 day) of 15.4 g/dL, a Ht ([…], time 28 day) of 46.3% and a Lym ([…], time 28 day) of 73.2%. For the same compound, the MCH ([…], time 28 day) was 19.1 pg, the MCHC ([…], time 28 day) was 33.3% and the MCV ([…], time 28 day) was 57.3 fL. For the same compound, the Mono ([…], time 28 day) was 6.6%, the Neu ([…], time 28 day) was 18.8% and the PT ([…], time 28 day) was 11.1 s. It also gave a Plat ([…], time 28 day) of 104.5 x10_4/uL, an RBC ([…], time 28 day) of 809 x10_4/ul and a Ret ([…], time 28 day) of 7%. It also gave a WBC ([…], time 28 day) of 96.6 x10_2/uL, a KIDNEY_L ([…], time 7 day) of 1.1 g and a KIDNEY_R ([…], time 7 day) of 1.2 g. It also gave a KIDNEY_TOTAL ([…], time 7 day) of 2.3 g, a KIDNEY_L ([…], time 14 day) of 1.2 g and a KIDNEY_R ([…], time 14 day) of 1.2 g. For the same compound, the KIDNEY_TOTAL ([…], time 14 day) was 2.4 g, the KIDNEY_L ([…], time 28 day) was 1.3 g and the KIDNEY_R ([…], time 28 day) was 1.4 g. It also gave a KIDNEY_TOTAL ([…], time 28 day) of 2.7 g, an LIVER ([…], time 7 day) of 13.2 g and an LIVER ([…], time 14 day) of 13.7 g. For the same compound, the LIVER ([…], time 28 day) was 14.7 g, the A/G ([…], time 7 day) was 2.3 and the ALP ([…], time 7 day) was 946.6 IU/L. It also gave an ALT ([…], time 7 day) of 37.4 IU/L, an AST ([…], time 7 day) of 64.8 IU/L and a BUN ([…], time 7 day) of 20.8 mg/dL. For the same compound, the CRE ([…], time 7 day) was 0.5 mg/dL, the Ca ([…], time 7 day) was 10.6 mg/dL and the Cl ([…], time 7 day) was 103.8 meq/L. The DBIL ([…], time 7 day) was 0 mg/dL, the GLC ([…], time 7 day) was 202 mg/dL and the IP ([…], time 7 day) was 8.4 mg/dL. It also gave a K ([…], time 7 day) of 4.8 meq/L, an LDH ([…], time 7 day) of 108.4 IU/L and a Na ([…], time 7 day) of 141 meq/L. It also gave a PL ([…], time 7 day) of 154.4 mg/dL, an RALB ([…], time 7 day) of 4.1 g/dL and a TBIL ([…], time 7 day) of 0.3 mg/dL. It also gave a TC ([…], time 7 day) of 70.6 mg/dL, a TG ([…], time 7 day) of 132.4 mg/dL and a TP ([…], time 7 day) of 6 g/dL. For the same compound, the gamma-GTP ([…], time 7 day) was 1.4 IU/L, the A/G ([…], time 14 day) was 1.8 and the ALP ([…], time 14 day) was 821.6 IU/L. For the same compound, the ALT ([…], time 14 day) was 33 IU/L, the AST ([…], time 14 day) was 62.2 IU/L and the BUN ([…], time 14 day) was 19.2 mg/dL. For the same compound, the CRE ([…], time 14 day) was 0.5 mg/dL, the Ca ([…], time 14 day) was 10.8 mg/dL and the Cl ([…], time 14 day) was 105 meq/L. For the same compound, the DBIL ([…], time 14 day) was 0.018 mg/dL, the GLC ([…], time 14 day) was 205.6 mg/dL and the IP ([…], time 14 day) was 7.4 mg/dL. It also gave a K ([…], time 14 day) of 4.5 meq/L, an LDH ([…], time 14 day) of 104.4 IU/L and a Na ([…], time 14 day) of 141.8 meq/L. For the same compound, the PL ([…], time 14 day) was 159.8 mg/dL, the RALB ([…], time 14 day) was 3.9 g/dL and the TBIL ([…], time 14 day) was 0.3 mg/dL. It also gave a TC ([…], time 14 day) of 79 mg/dL, a TG ([…], time 14 day) of 114.2 mg/dL and a TP ([…], time 14 day) of 6.1 g/dL. It also gave a gamma-GTP ([…], time 14 day) of 1 IU/L, an A/G ([…], time 28 day) of 1.5 and an ALP ([…], time 28 day) of 558.4 IU/L. It also gave an ALT ([…], time 28 day) of 32.8 IU/L, an AST ([…], time 28 day) of 64 IU/L and a BUN ([…], time 28 day) of 21.4 mg/dL. It also gave a CRE ([…], time 28 day) of 0.6 mg/dL, a Ca ([…], time 28 day) of 10.2 mg/dL and a Cl ([…], time 28 day) of 107.4 meq/L. The DBIL ([…], time 28 day) was 0 mg/dL, the GLC ([…], time 28 day) was 221.2 mg/dL and the IP ([…], time 28 day) was 6.6 mg/dL. The K ([…], time 28 day) was 4.4 meq/L, the LDH ([…], time 28 day) was 83 IU/L and the Na ([…], time 28 day) was 141 meq/L. It also gave a PL ([…], time 28 day) of 151.4 mg/dL, an RALB ([…], time 28 day) of 3.6 g/dL and a TBIL ([…], time 28 day) of 0.3 mg/dL. It also gave a TC ([…], time 28 day) of 70.6 mg/dL, a TG ([…], time 28 day) of 181.6 mg/dL and a TP ([…], time 28 day) of 6.1 g/dL. For the same compound, the gamma-GTP ([…], time 28 day) was 1.4 IU/L.
